Where only a bound is given, the exact number is not on record here.

The assay concerns HCT116. Nature of the assay: In vitro cytotoxicity measured by the cell colony formation assay. The format is cell-based. To be noted: HCT116 cells, 72 h drug incubation, colonies counted after 7 days; ID50 = drug concentration producing 50% inhibition of colony formation; read-out: IN VITRO ID 50 (nm) HCT116. How it is done: In Vitro Cytotoxicity Measured by the Cell Colony Formation Assay
Four hundred cells (HCT116) were plated in 60 mm Petri dishes containing 2.7 mL of medium (modified McCoy's 5a medium containing 10% fetal bovine serum and 100 units/mL penicillin and 100 µg/mL streptomycin). The cells were incubated in a CO2 incubator at 37° C. for 5 h for attachment to the bottom of Petri dishes. The compounds identified in Example 2 were made up fresh in medium at ten times the final concentration, and then 0.3 mL of this stock solution was added to the 2.7 mL of medium in the dish. The cells were then incubated with drugs for 72 h at 37° C. At the end of incubation the drug-containing media were decanted, the dishes were rinsed with 4 mL of Hank's Balance Salt Solution (HBSS), 5 mL of fresh medium was added, and the dishes were returned to the incubator for colony formation. The cell colonies were counted using a colony counter after incubation for 7 days.
Consider `CC(=O)OC12COC1CC(O)C1(C)C(=O)C(OC(=O)c3ccco3)C3=C(C)C(OC(=O)C(O)C(NC(=O)OC(C)(C)C)c4cccnc4)CC(O)(C(OC(=O)c4ccccc4)C21)C3(C)C` (stereo not shown) [Compound 2124], for which the IC50 was under 10 nM. To `CCCC(=O)O[C@H]1C(=O)[C@@]2(C)C([C@H](OC(=O)c3ccccc3)[C@]3(O)C[C@H](OC(=O)[C@H](O)[C@H](C=C(C)C)NC(=O)OCC(C)C)C(C)=C1C3(C)C)[C@]1(OC(C)=O)CO[C@@H]1C[C@@H]2O` (stereo partly shown) [Compound 5144] belongs under 10 nM. The value for `C/C=C/C(=O)N[C@@H](c1cccs1)[C@@H](O)C(=O)O[C@H]1C[C@@]2(O)[C@@H](OC(=O)c3ccccc3)C3[C@](C)(C(=O)[C@H](OC(=O)CCC)C(=C1C)C2(C)C)[C@@H](O)C[C@H]1OC[C@@]31OC(C)=O` (stereo partly shown) [Compound 3595] was under 1 nM. The value for `CC(=O)O[C@@]12CO[C@@H]1C[C@H](O)[C@@]1(C)C(=O)[C@H](OC(=O)C3CC3)C3=C(C)[C@@H](OC(=O)[C@H](O)[C@@H](NC(=O)OC(C)(C)C)c4cccs4)C[C@@](O)([C@@H](OC(=O)c4ccccc4)C12)C3(C)C` (stereo partly shown) [Compound 0854] was under 1 nM; that for `CCC(=O)O[C@H]1C(=O)[C@@]2(C)C([C@H](OC(=O)c3ccccc3)[C@]3(O)C[C@H](OC(=O)[C@H](O)[C@@H](NC(=O)OC(C)(C)C)C(C)C)C(C)=C1C3(C)C)[C@]1(OC(C)=O)CO[C@@H]1C[C@@H]2O` (stereo partly shown) [Compound 0583] was under 10 nM.

On to `CC(=O)OC12COC1CC(O)C1(C)C(=O)C(OC(=O)C(C)C)C3=C(C)C(OC(=O)C(O)C(NC(=O)OC(C)(C)C)c4ccccn4)CC(O)(C(OC(=O)c4ccccc4)C21)C3(C)C` (stereo not shown) [Compound 2238], for which the IC50 was under 1 nM. To `CC(=O)OC12COC1CC(O)C1(C)C(=O)C(OC(=O)c3cccs3)C3=C(C)C(OC(=O)C(O)C(NC(=O)OC(C)(C)C)c4ccsc4)CC(O)(C(OC(=O)c4ccccc4)C21)C3(C)C` (stereo not shown) [Compound 1939] belongs under 1 nM; to `CCCC(=O)O[C@H]1C(=O)[C@@]2(C)C([C@H](OC(=O)c3ccccc3)[C@]3(O)C[C@H](OC(=O)[C@H](O)[C@@H](NC(=O)OCC(C)C)c4cccs4)C(C)=C1C3(C)C)[C@]1(OC(C)=O)CO[C@@H]1C[C@@H]2O` (stereo partly shown) [Compound 3265], under 10 nM.

Consider `C/C=C/C(=O)O[C@H]1C(=O)[C@@]2(C)C([C@H](OC(=O)c3ccccc3)[C@]3(O)C[C@H](OC(=O)[C@H](O)[C@@H](NC(=O)OC(C)(C)C)c4ccccc4)C(C)=C1C3(C)C)[C@]1(OC(C)=O)CO[C@@H]1C[C@@H]2O` (stereo partly shown) [Compound 2442], for which the IC50 is under 1 nM.

As for `CC(=O)O[C@@]12CO[C@@H]1C[C@H](O)[C@@]1(C)C(=O)[C@H](OC(=O)C3CC3)C3=C(C)[C@@H](OC(=O)[C@H](O)[C@@H](NC(=O)OC(C)C)c4ccco4)C[C@@](O)([C@@H](OC(=O)c4ccccc4)C12)C3(C)C` (stereo partly shown) [Compound 3853], the IC50 was under 1 nM. The value for `CC(=O)OC12COC1CC(O)C1(C)C(=O)C(OC(=O)c3ccco3)C3=C(C)C(OC(=O)C(O)C(NC(=O)OC(C)(C)C)C(C)C)CC(O)(C(OC(=O)c4ccccc4)C21)C3(C)C` (stereo not shown) [Compound 2181] was under 10 nM.

For `CC(=O)O[C@@]12CO[C@@H]1C[C@H](O)[C@@]1(C)C(=O)[C@H](OC(=O)C3CC3)C3=C(C)[C@@H](OC(=O)[C@H](O)[C@@H](NC(=O)c4ccco4)c4cccs4)C[C@@](O)([C@@H](OC(=O)c4ccccc4)C12)C3(C)C` (stereo partly shown) [Compound 3297], the IC50 was under 1 nM.

`CCCC(=O)O[C@H]1C(=O)[C@@]2(C)C([C@H](OC(=O)c3ccccc3)[C@]3(O)C[C@H](OC(=O)[C@H](O)[C@@H](NC(=O)c4ccco4)c4cccs4)C(C)=C1C3(C)C)[C@]1(OC(C)=O)CO[C@@H]1C[C@@H]2O` (stereo partly shown) [Compound 3352]: the IC50 is under 1 nM. The value for `CC(=O)O[C@@]12CO[C@@H]1C[C@H](O)[C@@]1(C)C(=O)[C@H](OC(=O)C=C(C)C)C3=C(C)[C@@H](OC(=O)[C@H](O)[C@@H](NC(=O)OC(C)(C)C)c4ccsc4)C[C@@](O)([C@@H](OC(=O)c4ccccc4)C12)C3(C)C` (stereo partly shown) [Compound 2511] was under 1 nM; that for `CC(=O)O[C@@]12CO[C@@H]1C[C@H](O)[C@@]1(C)C(=O)[C@H](OC(=O)C3CC3)C3=C(C)[C@@H](OC(=O)[C@H](O)[C@@H](NC(=O)OC(C)(C)C)c4ccccc4)C[C@@](O)([C@@H](OC(=O)c4ccccc4)C12)C3(C)C` (stereo partly shown) [Compound 0882] was under 1 nM.

As for `CC(=O)OC12COC1CC(O)C1(C)C(=O)C(OC(=O)c3cccs3)C3=C(C)C(OC(=O)C(O)C(NC(=O)OC(C)(C)C)c4cccs4)CC(O)(C(OC(=O)c4ccccc4)C21)C3(C)C` (stereo not shown) [Compound 1900], the IC50 was under 1 nM. In the case of `CCCC(=O)O[C@H]1C(=O)[C@@]2(C)C([C@H](OC(=O)c3ccccc3)[C@]3(O)C[C@H](OC(=O)[C@H](O)[C@@H](NC(=O)c4ccccc4)C4CC4)C(C)=C1C3(C)C)[C@]1(OC(C)=O)CO[C@@H]1C[C@@H]2O` (stereo partly shown) [Compound 3482], the IC50 is under 1 nM. Regarding `CC(=O)O[C@@]12CO[C@@H]1C[C@H](O)[C@@]1(C)C(=O)[C@H](OC(=O)C3CC3)C3=C(C)[C@@H](OC(=O)[C@H](O)[C@@H](NC(=O)c4ccccc4)c4ccccc4)C[C@@](O)([C@@H](OC(=O)c4ccccc4)C12)C3(C)C` (stereo partly shown) [Compound 0937], the IC50 was under 10 nM. The value for `C/C=C/C(=O)O[C@H]1C(=O)[C@@]2(C)C([C@H](OC(=O)c3ccccc3)[C@]3(O)C[C@H](OC(=O)[C@H](O)[C@@H](NC(=O)OC(C)(C)C)c4cccs4)C(C)=C1C3(C)C)[C@]1(OC(C)=O)CO[C@@H]1C[C@@H]2O` (stereo partly shown) [Compound 2392] was under 1 nM.

Consider `CCC(=O)O[C@H]1C(=O)[C@@]2(C)C([C@H](OC(=O)c3ccccc3)[C@]3(O)C[C@H](OC(=O)[C@H](O)[C@@H](NC(=O)OC(C)(C)C)c4ccsc4)C(C)=C1C3(C)C)[C@]1(OC(C)=O)CO[C@@H]1C[C@@H]2O` (stereo partly shown) [Compound 0562], for which the IC50 is under 1 nM. Regarding `CCC(=O)O[C@H]1C(=O)[C@@]2(C)C([C@H](OC(=O)c3ccccc3)[C@]3(O)C[C@H](OC(=O)[C@H](O)[C@@H](NC(=O)OC(C)C)c4cccs4)C(C)=C1C3(C)C)[C@]1(OC(C)=O)CO[C@@H]1C[C@@H]2O` (stereo partly shown) [Compound 3361], the IC50 was under 1 nM. To `CCC(=O)O[C@H]1C(=O)[C@@]2(C)C([C@H](OC(=O)c3ccccc3)[C@]3(O)C[C@H](OC(=O)[C@H](O)[C@@H](NC(=O)c4ccccc4)c4ccco4)C(C)=C1C3(C)C)[C@]1(OC(C)=O)CO[C@@H]1C[C@@H]2O` (stereo partly shown) [Compound 0663] belongs under 1 nM. For `CC(=O)OC12COC1CC(O)C1(C)C(=O)C(OC(=O)c3ccco3)C3=C(C)C(OC(=O)C(O)C(C=C(C)C)NC(=O)OC(C)(C)C)CC(O)(C(OC(=O)c4ccccc4)C21)C3(C)C` (stereo not shown) [Compound 2101], the IC50 was under 1 nM. Consider `CC(=O)O[C@@]12CO[C@@H]1C[C@H](O)[C@@]1(C)C(=O)[C@H](OC(=O)C3CC3)C3=C(C)[C@@H](OC(=O)[C@H](O)[C@@H](NC(=O)c4ccccc4)c4ccccn4)C[C@@](O)([C@@H](OC(=O)c4ccccc4)C12)C3(C)C` (stereo partly shown) [Compound 2844], for which the IC50 was under 10 nM. To `CCC(=O)O[C@H]1C(=O)[C@@]2(C)C([C@H](OC(=O)c3ccccc3)[C@]3(O)C[C@H](OC(=O)[C@H](O)[C@@H](NC(=O)c4ccco4)c4ccco4)C(C)=C1C3(C)C)[C@]1(OC(C)=O)CO[C@@H]1C[C@@H]2O` (stereo partly shown) [Compound 3818] belongs under 1 nM.
